Measured values as given in ChEMBL document CHEMBL1137441, “Carbonic anhydrase inhibitors: the inhibition profiles of the human mitochondrial isoforms VA and VB with anions are very different” (Bioorg Med Chem, 2007).

Tests used:
[1] = target: Carbonic anhydrase 5A, mitochondrial (Homo sapiens) (UniProt P35218); experiment: Inhibition of human mitochondrial CA5A by CO2 hydration assay
[2] = target: Carbonic anhydrase 5B, mitochondrial (Homo sapiens) (UniProt Q9Y2D0)
Carbonic anhydrase 5B, mitochondrial (Homo sapiens), sequence (Q9Y2D0 whole entry): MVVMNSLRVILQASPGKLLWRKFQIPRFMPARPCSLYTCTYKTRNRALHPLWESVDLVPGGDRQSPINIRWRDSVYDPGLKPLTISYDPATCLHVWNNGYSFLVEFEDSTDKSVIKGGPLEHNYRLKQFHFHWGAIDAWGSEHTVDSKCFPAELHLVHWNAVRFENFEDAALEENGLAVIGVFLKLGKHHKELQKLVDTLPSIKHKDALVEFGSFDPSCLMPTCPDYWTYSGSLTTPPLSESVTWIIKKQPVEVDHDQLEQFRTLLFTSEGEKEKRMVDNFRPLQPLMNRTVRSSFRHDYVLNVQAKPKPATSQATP
Description: Inhibition of human mitochondrial CA5B by CO2 hydration assay

Carbonic anhydrase 5A, mitochondrial (Homo sapiens), sequence (P35218 whole entry): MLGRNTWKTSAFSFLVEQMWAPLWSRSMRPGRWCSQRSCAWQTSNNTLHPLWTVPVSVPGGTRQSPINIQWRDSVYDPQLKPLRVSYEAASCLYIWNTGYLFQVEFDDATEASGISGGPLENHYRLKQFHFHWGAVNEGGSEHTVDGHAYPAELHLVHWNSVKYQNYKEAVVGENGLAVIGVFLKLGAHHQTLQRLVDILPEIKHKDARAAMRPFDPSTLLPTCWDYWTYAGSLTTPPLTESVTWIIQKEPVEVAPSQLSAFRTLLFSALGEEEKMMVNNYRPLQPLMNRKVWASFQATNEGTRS

Compound	Kinact [1] [mM]	Kinact [2] [mM]
OB(O)c1ccccc1	1.04	–
O=[As](O)(O)c1ccccc1	1.02	0.082
